As a reminder, the EC50 is the concentration that produces a half-maximal response.

The source of these data is patent publication US12599582B2, “Pyrrole compounds” (ALIGOS THERAPEUTICS, INC., priority 2019, dated 2026).

The test has as its system HBV. As to the kind of experiment: HBV-DNA Antiviral Assay Using HepG2.2.15 Cells (extracellular HBV DNA by qPCR). The test is classed as cell-based, hepatitis B virus (HBV). The following applies: Hepatitis B virus; HBV DNA inhibition, HepG2.2.15 cells, extracellular HBV DNA by qPCR; read-out: EC50. The method in brief: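 HepG2.2.15 cells were treated on day 1 with 8 concentrations (4-fold dilutions, duplicate; 0.5% DMSO), with compound-containing medium refreshed on day 4, at 37 °C. On day 7, supernatant HBV DNA was measured by qPCR against a plasmid standard curve, with inhibition normalised between DMSO and ETV controls. EC50/EC90 and CC50 (CellTiter-Glo ATP) came from variable-slope fits.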

As to `Cc1c(C(=O)C(=O)NC2(C#CCO)COC2)c(C)n(C)c1C(=O)Nc1ccc(F)c(C#N)c1` [Compound 76, N-(3-cyano-4-fluoro-phenyl)-4-[2-[[3-(3-hydroxyprop-1-ynyl)oxetan-3-yl]amino]-2-oxo-acetyl]-1,3,5-trimethyl-pyrrole-2-carboxamide], the EC50 fell in the range of 0.01 to 0.1 µM. As for `C#CCNC(=O)C(=O)c1cn(C)c(C(=O)Nc2ccc(F)c(C#N)c2)c1C` [Compound 8, N-(3-cyano-4-fluoro-phenyl)-1,3-dimethyl-4-[2-oxo-2-(prop-2-ynylamino)acetyl]pyrrole-2-carboxamide], the figure is 0.01 to 0.1 µM; as for `C#CCNC(=O)C(=O)c1c(Cl)c(C(=O)Nc2ccc(F)c(C#N)c2)n(C)c1C` [Compound 21, 3-chloro-N-(3-cyano-4-fluoro-phenyl)-1,5-dimethyl-4-[2-oxo-2-(prop-2-ynylamino)acetyl]pyrrole-2-carboxamide], 0.001 to 0.01 µM; as for `C#C[C@@H](CCO)NC(=O)C(=O)c1c(C)c(C(=O)Nc2ccc(F)c(C#N)c2)n(C)c1C` [Compound 61a, N-(3-cyano-4-fluoro-phenyl)-1,3,5-trimethyl-4-[2-oxo-2-[[(1R)-1-(2-hydroxyethyl)prop-2-ynyl]amino]acetyl]pyrrole-2-carboxamide], 0.001 to 0.01 µM.

Regarding `Cc1c(C(=O)C(=O)NC2(C#CC(F)(F)F)CC(O)C2)c(C)n(C)c1C(=O)Nc1ccc(F)c(C#N)c1` (stereo not shown) [Compound 62, N-(3-cyano-4-fluoro-phenyl)-4-[2-[[3-hydroxy-1-(3,3,3-trifluoroprop-1-ynyl)cyclobutyl]amino]-2-oxo-acetyl]-1,3,5-trimethyl-pyrrole-2-carboxamide], the EC50 lay in the range of 0.1 to 1 µM.

On to `Cc1c(C(=O)C(=O)NC(C)(C)c2cnn(C)c2)c(C)n(C)c1C(=O)Nc1ccc(F)c(C(F)(F)F)c1` [Compound 98, N-[4-fluoro-3-(trifluoromethyl)phenyl]-1,3,5-trimethyl-4-[2-[[1-methyl-1-(1-methylpyrazol-4-yl)ethyl]amino]-2-oxo-acetyl]pyrrole-2-carboxamide], for which the EC50 was under 0.001 µM. The value for `C#CC1(NC(=O)C(=O)c2c(F)c(C(=O)Nc3ccc(F)c(C#N)c3)n(C)c2C)CC(F)(F)C1` [Compound 56, N-(3-cyano-4-fluoro-phenyl)-4-[2-[(1-ethynyl-3,3-difluoro-cyclobutyl)amino]-2-oxo-acetyl]-3-fluoro-1,5-dimethyl-pyrrole-2-carboxamide] was under 0.001 µM. The value for `C#CC1(NC(=O)C(=O)c2c(C)c(C(=O)Nc3ccc(F)c(C(F)F)c3)n(C)c2C)CC(F)(F)C1` [Compound 82, N-[3-(difluoromethyl)-4-fluoro-phenyl]-4-[2-[(1-ethynyl-3,3-difluoro-cyclobutyl)amino]-2-oxo-acetyl]-1,3,5-trimethyl-pyrrole-2-carboxamide] was 0.001 to 0.01 µM. As to `C#CC1(NC(=O)C(=O)c2c(C)c(C(=O)Nc3ccc(F)c(C#N)c3)n(C)c2Cl)COC1` [Compound 40, 5-chloro-N-(3-cyano-4-fluoro-phenyl)-4-[2-[(3-ethynyloxetan-3-yl)amino]-2-oxo-acetyl]-1,3-dimethyl-pyrrole-2-carboxamide], the EC50 was under 0.001 µM.

In the case of `C#CCNC(=O)C(=O)c1c(C)c(C(=O)Nc2ccnc(Br)c2F)n(C)c1C` [Compound 4, N-(2-bromo-3-fluoro-4-pyridyl)-1,3,5-trimethyl-4-[2-oxo-2-(prop-2-ynylamino)acetyl]pyrrole-2-carboxamide], the EC50 lay in the range of 0.001 to 0.01 µM.

For `C#C[C@@](CO)(NC(=O)C(=O)c1c(C)c(C(=O)Nc2ccc(F)c(C#N)c2)n(C)c1C)C(F)(F)F` [Compound 71b, N-(3-cyano-4-fluoro-phenyl)-1,3,5-trimethyl-4-[2-oxo-2-[[(1S)-1-(hydroxymethyl)-1-(trifluoromethyl)prop-2-ynyl]amino]acetyl]pyrrole-2-carboxamide], the EC50 fell in the range of 0.001 to 0.01 µM.

Consider `C#C[C@@H](C)NC(=O)C(=O)c1c(C)c(C(=O)Nc2ccc(F)c(C#N)c2)n(C)c1C` [Compound 17a, N-(3-cyano-4-fluoro-phenyl)-1,3,5-trimethyl-4-[2-oxo-2-[[(1R)-1-methylprop-2-ynyl]amino]acetyl]pyrrole-2-carboxamide], for which the EC50 lay in the range of 0.001 to 0.01 µM.

Regarding `Cc1c(C(=O)C(=O)NC(C)(C)c2cn[nH]c2)c(C)n(C)c1C(=O)Nc1ccc(F)c(C(F)(F)F)c1` [Compound 97, N-[4-fluoro-3-(trifluoromethyl)phenyl]-1,3,5-trimethyl-4-[2-[[1-methyl-1-(1H-pyrazol-4-yl)ethyl]amino]-2-oxo-acetyl]pyrrole-2-carboxamide], the EC50 was under 0.001 µM. Regarding `Cc1c(C(=O)C(=O)NC(C)(C)c2nnco2)c(C)n(C)c1C(=O)Nc1ccc(F)c(C#N)c1` [Compound 139, N-(3-cyano-4-fluoro-phenyl)-1,3,5-trimethyl-4-[2-[[1-methyl-1-(1,3,4-oxadiazol-2-yl)ethyl]amino]-2-oxo-acetyl]pyrrole-2-carboxamide], the EC50 lay within 0.001 to 0.01 µM.

Turning to `Cc1c(C(=O)C(=O)NC(C)(C)c2ccc(F)cn2)c(C)n(C)c1C(=O)Nc1ccc(F)c(C#N)c1` [Compound 145, N-(3-cyano-4-fluoro-phenyl)-4-[2-[[1-(5-fluoro-2-pyridyl)-1-methyl-ethyl]amino]-2-oxo-acetyl]-1,3,5-trimethyl-pyrrole-2-carboxamide], the EC50 lay within 0.001 to 0.01 µM. On to `C=C[C@](CO)(NC(=O)C(=O)c1c(C)c(C(=O)Nc2ccc(F)c(C#N)c2)n(C)c1C)C(F)(F)F` [Compound 74a, N-(3-cyano-4-fluoro-phenyl)-1,3,5-trimethyl-4-[2-oxo-2-[[(1R)-1-(hydroxymethyl)-1-(trifluoromethyl)allyl]amino]acetyl]pyrrole-2-carboxamide], for which the EC50 lay within 0.001 to 0.01 µM. Consider `C=C[C@](C)(CO)NC(=O)C(=O)c1c(C)c(C(=O)Nc2ccc(F)c(C(F)(F)F)c2)n(C)c1C` [Compound 69a, N-[4-fluoro-3-(trifluoromethyl)phenyl]-1,3,5-trimethyl-4-[2-oxo-2-[[(1R)-1-(hydroxymethyl)-1-methyl-allyl]amino]acetyl]pyrrole-2-carboxamide], for which the EC50 fell in the range of 0.001 to 0.01 µM. The value for `C#CC(C)(C)NC(=O)C(=O)c1c(C)c(C(=O)Nc2ccc(F)c(C#N)c2)n(C)c1C` [Compound 11, N-(3-cyano-4-fluoro-phenyl)-4-[2-(1,1-dimethylprop-2-ynylamino)-2-oxo-acetyl]-1,3,5-trimethyl-pyrrole-2-carboxamide] was under 0.001 µM; that for `C#CC1(NC(=O)C(=O)c2c(C)c(C(=O)Nc3ccc(F)c(F)c3)n(C)c2C)CCCCC1` [Compound 87, N-(3,4-difluorophenyl)-4-[2-[(1-ethynylcyclohexyl)amino]-2-oxo-acetyl]-1,3,5-trimethyl-pyrrole-2-carboxamide] was 0.001 to 0.01 µM. As for `C#C[C@@](CO)(NC(=O)C(=O)c1c(C)c(C(=O)Nc2ccc(F)c(C#N)c2)n(C)c1C)C1CC1` [Compound 63b, N-(3-cyano-4-fluoro-phenyl)-1,3,5-trimethyl-4-[2-oxo-2-[[(1S)-1-cyclopropyl-1-(hydroxymethyl)prop-2-ynyl]amino]acetyl]pyrrole-2-carboxamide], the figure is 0.001 to 0.01 µM; as for `C=CC1(NC(=O)C(=O)c2c(C)c(C(=O)Nc3ccc(F)c(C#N)c3)n(C)c2C)CC(F)(F)C1` [Compound 53, N-(3-cyano-4-fluoro-phenyl)-4-[2-[(3,3-difluoro-1-vinyl-cyclobutyl)amino]-2-oxo-acetyl]-1,3,5-trimethyl-pyrrole-2-carboxamide], 0.001 to 0.01 µM.

For `C#CC1(NC(=O)C(=O)c2c(C)c(C(=O)Nc3ccc(F)c(C#N)c3)n(C)c2C)CCS(=O)(=O)CC1` [Compound 108, N-(3-cyano-4-fluoro-phenyl)-4-[2-[(4-ethynyl-1,1-dioxo-thian-4-y1)amino]-2-oxo-acetyl]-1,3,5-trimethyl-pyrrole-2-carboxamide], the EC50 lay in the range of 0.001 to 0.01 µM. Turning to `Cc1c(C(=O)C(=O)NC(C)(C)c2nccs2)c(C)n(C)c1C(=O)Nc1ccc(F)c(C(F)(F)F)c1` [Compound 103, N-[4-fluoro-3-(trifluoromethyl)phenyl]-1,3,5-trimethyl-4-[2-[(1-methyl-1-thiazol-2-yl-ethyl)amino]-2-oxo-acetyl]pyrrole-2-carboxamide], the EC50 fell in the range of 0.001 to 0.01 µM. For `Cc1c(C(=O)C(=O)NC2(C#C[C@@H](C)O)COC2)c(C)n(C)c1C(=O)Nc1ccc(F)c(C#N)c1` [Compound 94a, N-(3-cyano-4-fluoro-phenyl)-1,3,5-trimethyl-4-[2-oxo-2-[[3-[(3R)-3-hydroxybut-1-ynyl]oxetan-3-yl]amino]acetyl]pyrrole-2-carboxamide], the EC50 was in the range of 0.01 to 0.1 µM. The value for `Cc1c(C(=O)C(=O)NC(C)(C)c2ccccn2)c(C)n(C)c1C(=O)Nc1ccc(F)c(C(F)(F)F)c1` [Compound 99, N-[4-fluoro-3-(trifluoromethyl)phenyl]-1,3,5-trimethyl-4-[2-[[1-methyl-1-(2-pyridyl)ethyl]amino]-2-oxo-acetyl]pyrrole-2-carboxamide] was 0.001 to 0.01 µM. As for `C#CCNC(=O)C(=O)c1c(F)c(C(=O)Nc2ccc(F)c(C#N)c2)n(C)c1C` [Compound 13, N-(3-cyano-4-fluoro-phenyl)-3-fluoro-1,5-dimethyl-4-[2-oxo-2-(prop-2-ynylamino)acetyl]pyrrole-2-carboxamide], the figure is 0.001 to 0.01 µM; as for `C#C[C@](C)(CO)NC(=O)C(=O)c1c(C)c(C(=O)Nc2ccc(F)c(C#N)c2)n(C)c1C` [Compound 64a, N-(3-cyano-4-fluoro-phenyl)-1,3,5-trimethyl-4-[2-oxo-2-[[(1R)-1-(hydroxymethyl)-1-methyl-prop-2-ynyl]amino]acetyl]pyrrole-2-carboxamide], 0.001 to 0.01 µM; as for `C#CC1(NC(=O)C(=O)c2c(C)c(C(=O)Nc3ccnc(Br)c3F)n(C)c2C)COC1` [Compound 83, N-(2-bromo-3-fluoro-4-pyridyl)-4-[2-[(3-ethynyloxetan-3-yl)amino]-2-oxo-acetyl]-1,3,5-trimethyl-pyrrole-2-carboxamide], 0.001 to 0.01 µM.
